Source: publication PMC5751233, “Characterization of the Asiatic Acid Glucosyltransferase, UGT73AH1, Involved in Asiaticoside Biosynthesis in Centella asiatica (L.) Urban” (International Journal of Molecular Sciences, 2017)

Molecular target: T1, UGT73AH1 (Centella asiatica, UniProt A0A2I7M6C4)
T1 construct: full-length ORF with stop codon, untagged, 501 residues; expressed in E. coli BL21 (DE3), soluble total protein extract
T1 sequence (A0A2I7M6C4 1-501): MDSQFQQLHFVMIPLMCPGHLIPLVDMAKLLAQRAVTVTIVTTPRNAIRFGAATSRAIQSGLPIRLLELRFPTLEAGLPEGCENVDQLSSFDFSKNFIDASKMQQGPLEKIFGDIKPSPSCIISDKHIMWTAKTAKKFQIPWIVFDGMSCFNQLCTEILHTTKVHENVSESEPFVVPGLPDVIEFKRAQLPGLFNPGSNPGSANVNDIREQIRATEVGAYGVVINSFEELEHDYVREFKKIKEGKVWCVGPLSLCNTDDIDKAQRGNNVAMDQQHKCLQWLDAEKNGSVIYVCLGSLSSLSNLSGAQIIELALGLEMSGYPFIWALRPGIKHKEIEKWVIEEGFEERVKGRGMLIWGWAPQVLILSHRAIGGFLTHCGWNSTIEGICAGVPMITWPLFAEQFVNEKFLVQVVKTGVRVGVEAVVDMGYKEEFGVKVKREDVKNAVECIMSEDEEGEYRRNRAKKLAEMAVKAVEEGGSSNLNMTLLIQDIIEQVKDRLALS
Test: UPLC-QTOF/MS detection of monoglucoside product
Format: biochemical
Settings: 5 mM UDP-glucose, 0.5 mM asiatic acid, 50 mM Tris-HCl pH 8.5, 35 °C, 4 h; E. coli total protein extract; boiled-protein control

C[C@H]1[C@H](C)CC[C@]2(C(=O)O)CC[C@]3(C)C(=CC[C@@H]4[C@@]5(C)C[C@@H](O)[C@H](O)[C@@](C)(CO)[C@@H]5CC[C@]43C)[C@H]12 [asiatic acid] was tested, and the “UPLC-QTOF/MS detection of monoglucoside product” value was “our results show that UGT73AH1 catalyzes the glycosylation of asiatic acid”.
